Source: patent publication US4146622A, “Aziridinyl quinone anti-transplanted tumor agents” (priority 1977, dated 1979)
Converted amounts (≈) assume the structure as drawn. “And” between values parts separate entries of the source, which are not always exact repeats. Equal entries are not always repeated. “Also recorded” adds a separate entry of the source.

Experiments:
lymphoid leukemia L1210 [1] = assay: Intraperitoneal (IP) lymphoid leukemia L1210 transplanted mouse tumor test; type: in vivo, murine; conditions: for OD (optimum dose) / ILS (percentage increase in life span) / animals alive per 6 test animals on day of termination / T - C (average weight change of test group minus control): Table VIII; for animals alive per 6 test animals on day of termination: day 30; for T - C (average weight change of test group minus control): day 5
Description: ^(a) Day 1-9 treatment schedule (9 injections)
^(b) Day 1,5,9 treatment schedule (3 injections)
^(c) Day 1 only treatment schedule (1 injection)
^(f) Percentage increase in life span of treated animals [(treated
survival .div. control survival) × 100%] - 100%

ependymoblastoma = assay: Intracerebral (IC) ependymoblastoma (EM) brain tumor test; type: in vivo, murine; conditions: for antitumor activity: IC ependymoblastoma (EM); for OD (optimum dose) / animals alive per 6 test animals on day of termination / ILS (percentage increase in life span): Table X, IC ependymoblastoma; for OD (optimum dose): QD1-5; for animals alive per 6 test animals on day of termination / ILS (percentage increase in life span): QD1-5, at OD; for animals alive per 6 test animals on day of termination / survivors (number in parentheses) EM: day 60; for survivors (number in parentheses) EM: per 6 test animals
Description: ^c Ic tumor implantation, ip QD1-5 treatment schedule.
^g Number of animals alive per six test animals on day of termination
of experiment (day 99 for expt 133 and day 60 for expt 136 and 144).
A third IC transplanted mouse tumor model, the ependymoblastoma system, was also studied. This system requires intracerebral implantation of a solid tumor fragment while the IC L1210 and IC P388 systems utilize IC inoculated ascites tumor fluid. All three use IP drug treatment however. […] Cures (survivors from the group of six mice on the last day of the experiment) are indicated. Experiments 136 and 144 were terminated on day 60. Since the number of cures was about the same, the differences in T/C values in these two experiments reflect differences in the life span of the two different sets of control animals. Experiment 133 was terminated on day 99 with a resulting higher activity value.
The hydrophilic dihydroxypropylamino compound (No. 39), which was curative in the IP L1210 and P388 leukemia systems, was active but gave a large spread in ILS values (53-186%). […] Again, its hydrophilic character may present transport problems in this IC tumor system.

lymphoid leukemia L1210 [2] = assay: Intracerebral (IC) lymphoid leukemia L1210 test; type: in vivo, murine; conditions: for OD (optimum dose) / ILS (percentage increase in life span): Table X; for OD (optimum dose): IC L1210, QD1-9; for ILS (percentage increase in life span): IC L1210, QD1-9, at OD
Description: ^b Ic tumor implantation, ip QD1-9 treatment schedule.
The L1210, P388 and B16 test systems described in Table II utilize intraperitoneal (IP) tumor implantation and IP drug treatment while the Lewis lung system employs subcutaneous tumor implantation and IP treatment. All three CNS tumor models (Table III) use intracerebral (IC) tumor implantation and IP treatment.
Consistent with NCI antitumor test protocols, intraperitoneal (IP) administration of the drug was employed with all five tumor systems investigated. Tumor implantation was IP in the systems designated IP leukemia L1210 and P388 as well as B16 melanoma. Intracerebral (IC) tumor implantation was utilized in the IC L1210 and ependymoblastoma tumor systems.

[3] = Room temperature water solubility; type: physicochemical; conditions: water; Table VII; room temperature, approximate; read-out: Approx. H2O Sol.
Description: In the following examples, all melting points are uncorrected and were recorded on a Thomas-Hoover capillary melting point apparatus. Elemental analyses were performed by NIAMDD, NIH, Bethesda, Maryland. Fluoranil, ethyleneimine and 2l -methylethyleneimine were obtained commerically. […] New compounds were identified by nmr and ir spectroscopy. In the tetraamino derivatives, the methylene protons of the aziridine rings usually occurred as a singlet at δ2.0-2.2 in CDCl3 or DMSO-d6. This absorption appeared at δ2.40 (CDCl3) for compound 11. Carbonyl absorption frequencies (nujol mull) occurred in the range 1620-1640 cm^-1 for the tetraamino compounds. Satisfactory elemental analyses (+0.4% of calculated values) are indicated by elemental symbols in Table VII. Room temperature water solubilities were determined by the incremental addition (pipet) of water to a weighed amount of compound with shaking. The solubility values in Table VII must be considered as approximate.

B16 melanocarcinoma = assay: Intraperitoneal B16 melanocarcinoma transplanted mouse tumor test; type: in vivo, murine; conditions: for antitumor activity: B16 melanoma; for OD (optimum dose) / ILS (percentage increase in life span): Table IX; for OD (optimum dose): B16, QD1-9; for ILS (percentage increase in life span): B16, QD1-9, at OD
Description: (§1) ^b Ip tumor implantation, ip QD1-9 treatment schedule.
(§2) The L1210, P388 and B16 test systems described in Table II utilize intraperitoneal (IP) tumor implantation and IP drug treatment while the Lewis lung system employs subcutaneous tumor implantation and IP treatment.
(§3) Aqueous saline solution (0.9%) was used as the drug vehicle. Normally, five doses were employed per experiment with the top dose chosen to produce toxicity. The lower doses were 50% of each preceeding dose.
(§4) Consistent with NCI antitumor test protocols, intraperitoneal (IP) administration of the drug was employed with all five tumor systems investigated. Tumor implantation was IP in the systems designated IP leukemia L1210 and P388 as well as B16 melanoma.

[4] = test system: P388 lymphocytic leukemia; assay: Intraperitoneal (IP) lymphocytic leukemia P388 transplanted mouse tumor test; type: in vivo, murine; conditions: for OD (optimum dose): IP P388, QD1-9
Description: as §1, §2, §3, §4

[5] = L1210 system, Q4D and QD1-9 schedules
[6] = IP L1210, Day 1 only (1 injection)
[7] = IP L1210, Q4D(1,5,9) (3 injections)
[8] = Table IX, IP P388, QD1-9, at OD
[9] = IP L1210, tetraaminobenzoquinone series (Table VIII)

Row | SMILES | antitumor activity (lymphoid leukemia L1210 [1]; [5]) | OD (optimum dose) (ependymoblastoma) | solubility [3] [µg/mL] | OD (optimum dose) (B16 melanocarcinoma) | ILS (percentage increase in life span) (B16 melanocarcinoma) | OD (optimum dose) (lymphoid leukemia L1210 [1]; [7]) | ILS (percentage increase in life span) (lymphoid leukemia L1210 [1]; IP L1210, Q4D(1,5,9), at OD) | OD (optimum dose) (lymphoid leukemia L1210 [1]; IP L1210, QD1-9 (9 injections)) | ILS (percentage increase in life span) (lymphoid leukemia L1210 [1]; IP L1210, QD1-9, at OD) | ILS (percentage increase in life span) (ependymoblastoma) | OD (optimum dose) ([4]; Table IX) | ILS (percentage increase in life span) [4, 8] | other results
1 | CCSC1=C(N2CC2)C(=O)C(SCC)=C(N2CC2)C1=O [Compound 5] | the activity was not reproducible | – | – | – | – | – | – | – | – | – | – | – | activity (%ILS) (lymphoid leukemia L1210 [1]; IP L1210, Q4D schedule): 30%
2 | CCCSC1=C(N2CC2)C(=O)C(SCCC)=C(N2CC2)C1=O [Compound 6] | inactive | – | – | – | – | – | – | – | – | – | – | – | –
3 | CCOC(=O)NC1=C(N2CC2C)C(=O)C(NC(=O)OCC)=C(N2CC2C)C1=O (centres unmarked) [Compound 10] | abolished activity | – | – | – | – | – | – | – | – | – | – | – | –
4 | CCOC(=O)NC1=C(N2CC2(C)C)C(=O)C(NC(=O)OCC)=C(N2CC2(C)C)C1=O [Compound 11] | abolished activity | – | – | – | – | – | – | – | – | – | – | – | –
5 | CCOC(=O)NC1=C(NCCCl)C(=O)C(NC(=O)OCC)=C(NCCCl)C1=O [Compound 12] | activity was abolished | – | – | – | – | – | – | – | – | – | – | – | –
6 | CC(=O)NC1=C(N2CC2(C)C)C(=O)C(NC(C)=O)=C(N2CC2(C)C)C1=O [Compound 21] | abolished activity | – | – | – | – | – | – | – | – | – | – | – | –
7 | CNC1=C(N2CC2C)C(=O)C(NC)=C(N2CC2C)C1=O (centres unmarked) [Compound 26] | – | 10.0 mg/kg/injection and 5.0 mg/kg/injection | < 100 | 5.0 mg/kg/injection | 70% and 48% | 12.5 mg/kg/injection | 93% and 52% | 5.0 mg/kg/injection | 69% and 37% | – | – | – | antitumor activity (ependymoblastoma): highly active; animals alive per 6 test animals on day of termination (ependymoblastoma): 1; ILS (%) EM (ependymoblastoma; Table XI, outstanding activity): 294%; survivors (number in parentheses) EM (ependymoblastoma; Table XI): 1; OD (optimum dose) (lymphoid leukemia L1210 [2]): 5.0 mg/kg/injection and 10.0 mg/kg/injection; ILS (percentage increase in life span) (lymphoid leukemia L1210 [2]): 39% and 25%; antitumor activity (B16 melanocarcinoma): active; ILS (%) B16 (B16 melanocarcinoma; Table XI, outstanding activity): 70%; OD (optimum dose) (lymphoid leukemia L1210 [1]; [6]): 5.0 mg/kg/injection and 10.0 mg/kg/injection; ILS (percentage increase in life span) (lymphoid leukemia L1210 [1]; IP L1210, Day 1 only, at OD): 42% and 39%
8 | O=C1C(F)=C(N2CC2)C(=O)C(N2CCOCC2)=C1N1CC1 [Compound 31, 2,5-diaziridinyl-3-fluoro-5-morpholino-1,4-benzoquinone] | – | 0.8 mg/kg/injection and 1.5 mg/kg/injection | 2000 (≈ 6820 µM) | 0.7 mg/kg/injection | 18% and 9% | – | – | – | – | 49% and 40% | 3.0 mg/kg/injection and 6.0 mg/kg/injection | 57% and 54% | antitumor activity ([4]; IP P388): active
9 | CNC1=C(N2CC2)C(=O)C(NC)=C(N2CC2)C1=O [Compound 34] | – | 0.2 mg/kg/injection and 0.4 mg/kg/injection | < 100 | – | 39% and 29% | 0.8 mg/kg/injection and 0.4 mg/kg/injection | – | 0.2 mg/kg/injection | – | 219% and 218% | 0.2 mg/kg/injection and 0.1 mg/kg/injection | 95% and 69% | antitumor activity (ependymoblastoma): among the most active materials; also recorded: highly active; animals alive per 6 test animals on day of termination (ependymoblastoma): 5 and 4; survivors (number in parentheses) EM (ependymoblastoma; Table XI): 5; antitumor activity (lymphoid leukemia L1210 [2]; IC L1210): most active; also recorded: significant activity; OD (optimum dose) (lymphoid leukemia L1210 [2]): 0.4 mg/kg/injection and 0.2 mg/kg/injection; ILS (percentage increase in life span) (lymphoid leukemia L1210 [2]): 68% and 60%; ILS (%) IC L1210 (lymphoid leukemia L1210 [2]; Table XI, outstanding activity): 68%; antitumor activity (B16 melanocarcinoma): approached minimal reproducible activity; OD (optimum dose) (lymphoid leukemia L1210 [1]; [6]): 0.7 mg/kg/injection; animals alive per 6 test animals on day of termination (lymphoid leukemia L1210 [1]; IP L1210, QD1-9, at OD): 1
10 | CCCNC1=C(N2CC2)C(=O)C(NCCC)=C(N2CC2)C1=O [Compound 36] | – | 10.0 mg/kg/injection and 5.0 mg/kg/injection | < 100 | 5.0 mg/kg/injection | 36% and 32% | 6.2 mg/kg/injection | 28% and 25% | 6.2 mg/kg/injection | 48% and 43% | 259% and 143% | 6.0 mg/kg/injection | 151% and 108% | antitumor activity (ependymoblastoma): highly active; also recorded: still very active; also recorded: most active; animals alive per 6 test animals on day of termination (ependymoblastoma): 2 and 1; survivors (number in parentheses) EM (ependymoblastoma; Table XI): 2; animals alive per 6 test animals on day of termination ([4]; Table IX, IP P388, QD1-9, at OD, day 30): 2; survivors (number in parentheses) P388 ([4]; Table XI, per 6 test animals, day 30): 2; antitumor activity (lymphoid leukemia L1210 [1]; [9]): significant reduction in activity
11 | CCCCNC1=C(N2CC2)C(=O)C(NCCCC)=C(N2CC2)C1=O [Compound 37] | – | 6.0 mg/kg/injection and 3.0 mg/kg/injection | < 100 | 10.0 mg/kg/injection and 5.0 mg/kg/injection | – | 12.5 mg/kg/injection and 8.2 mg/kg/injection | 44% and 25% | 10.0 mg/kg/injection and 5.0 mg/kg/injection | 36% and 30% | – | 5.0 mg/kg/injection and 10.0 mg/kg/injection | 64% and 49% | antitumor activity (ependymoblastoma): has activity; antitumor activity (lymphoid leukemia L1210 [1]; [9]): significant reduction in activity; OD (optimum dose) (lymphoid leukemia L1210 [1]; [6]): 10.0 mg/kg/injection; ILS (percentage increase in life span) (lymphoid leukemia L1210 [1]; IP L1210, Day 1 only, at OD): 11% and 5%
12 | O=C1C(N2CCCC2)=C(N2CC2)C(=O)C(N2CCCC2)=C1N1CC1 [Compound 43, 2,5-Diaziridinyl-3,6-dipyrrolidino-1,4-benzoquinone] | – | 1.6 mg/kg/injection and 3.1 mg/kg/injection | 500 (≈ 1520 µM) | 2.0 mg/kg/injection | 28% and 18% | 6.2 mg/kg/injection | 43% | 2.0 mg/kg/injection | – | – | – | 72% and 55% | OD (optimum dose) (lymphoid leukemia L1210 [1]; [6]): 4.0 mg/kg/injection and 2.0 mg/kg/injection; T - C (average weight change of test group minus control) (lymphoid leukemia L1210 [1]; IP L1210, Q4D(1,5,9), at OD): -2.3 grams
13 | O=C1C(N2CCCCC2)=C(N2CC2)C(=O)C(N2CCCCC2)=C1N1CC1 [Compound 44] | – | – | < 100 | 5.0 mg/kg/injection and 2.5 mg/kg/injection | – | – | 26% and 22% | 10.0 mg/kg/injection | 28% | 68% and 46% | 5.0 mg/kg/injection and 10.0 mg/kg/injection | 46% and 77% | ILS (percentage increase in life span) (lymphoid leukemia L1210 [1]; IP L1210, Day 1 only, at OD): 16% and 8%; T - C (average weight change of test group minus control) (lymphoid leukemia L1210 [1]; IP L1210, QD1-9, at OD): -2.2 grams
14 | O=C1C(N2CC2)=C(N2CCCC(O)C2)C(=O)C(N2CC2)=C1N1CCCC(O)C1 (centres unmarked) [Compound 45] | – | – | 1000 (≈ 2570 µM) | 1.0 mg/kg/injection | 40% and 37% | 6.0 mg/kg/injection and 4.0 mg/kg/injection | 104% and 84% | 3.0 mg/kg/injection | 59% and 44% | 64% and 48% | 1.0 mg/kg/injection | 95% and 78% | antitumor activity (B16 melanocarcinoma): approached minimal reproducible activity; animals alive per 6 test animals on day of termination (lymphoid leukemia L1210 [1]; IP L1210, Q4D(1,5,9), at OD): 2
